Laboratory results taken from publication PMC6201084 (Antimicrobial Agents and Chemotherapy, 2018).
Like-named read-outs stand apart in the source and are kept apart here.

How the values were obtained:
[1] = molecular target: neuraminidase (NA) of influenza B/Minnesota/23/2015 (WT-D197) (Influenza B virus, UniProt A0A1S5RAG6); assay type: biochemical; details: three independent experiments, read-out: IC50 (nM), mean ± SD
[2] = molecular target: neuraminidase (NA) of influenza B/England/598/2014 (WT-H273) (Influenza B virus, UniProt A0A1S5RAG6); assay type: biochemical
Sequence of neuraminidase (NA) of influenza B/England/598/2014 (WT-H273) (A0A1S5RAG6 entry or part of it, added parts left off): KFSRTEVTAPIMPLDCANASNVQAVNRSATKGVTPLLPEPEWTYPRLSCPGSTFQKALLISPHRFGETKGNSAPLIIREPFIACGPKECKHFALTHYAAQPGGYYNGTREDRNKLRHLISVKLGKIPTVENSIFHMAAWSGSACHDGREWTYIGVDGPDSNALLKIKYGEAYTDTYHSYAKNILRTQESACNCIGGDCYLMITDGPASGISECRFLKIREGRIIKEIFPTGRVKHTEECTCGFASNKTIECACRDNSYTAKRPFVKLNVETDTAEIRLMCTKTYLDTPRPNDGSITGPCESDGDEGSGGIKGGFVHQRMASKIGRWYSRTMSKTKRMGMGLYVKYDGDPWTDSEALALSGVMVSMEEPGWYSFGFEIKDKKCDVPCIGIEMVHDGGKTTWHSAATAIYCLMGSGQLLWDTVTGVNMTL

Sequence of neuraminidase (NA) of influenza B/Minnesota/23/2015 (WT-D197) (A0A1S5RAG6 entry or part of it, added parts left off): as above

Question: With CCC(CC)[C@H](NC(C)=O)[C@@H]1[C@H](O)[C@@H](C(=O)O)C[C@H]1N=C(N)N [Peramivir, peramivir] as the molecule, how does the IC50 [1] read?
Answer: 1 ± 0.1 nM

Question: And the IC50 ([2]; WT-H273 virus, three independent experiments, read-out: IC50 (nM), mean ± SD)?
Answer: 1 ± 0.05 nM

Question: And the IC50 ([2]; approximate value given in discussion for wild-type influenza B viruses, read-out: IC50 for wild-type influenza B viruses)?
Answer: ~1 nM
